One data set addresses Ba/F3 EGFR WT (Homo sapiens, UniProt P00533). The data set is described as follows: Cell proliferation experiment (CellTiter Glo, 72 hours). Format: cell-based. Particulars: for GI50: read-out: BaF3 EGFR WT IC50. The essentials:
(§1)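 Ba/F3 cells overexpressing EGFR Δ19del/T790M/C797S or EGFR WT were seeded at 2000 or 3000 cells/well and exposed 72 h to 9 compound concentrations (3-fold, top 10000 or 1111 nM final, 0.1% DMSO). CellTiter-Glo luminescence gave survival inhibition versus controls; IC50 from nonlinear fit.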
Background: Cellular ATP, detected with luciferase, serves as a proxy for viable cell number.

The next data set deals with Ba/F3-Δ19del/T790M/C797S (Homo sapiens, UniProt P00533, T790M/C797S, cells depend on it, form not given). The description is as above. The data set is classed as cell-based. The following applies: for GI50: read-out: Ba/F3/EGFR Δ19del/T790M/C797S IC50. A digest of the protocol:
as §1

Data set [1] has as its system human epidermal cancer cells A431 carrying EGFR WT. Described as above. Format: cell-based. The following applies: for IC50: Homo sapiens, A-431. The essentials:
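Cells seeded at 2000 or 3000/well and exposed 72 h to 9-point 3-fold dilutions, top final 10000 nM or 1111 nM, 0.1% DMSO. Viability by CellTiter-Glo luminescence. Inhibition relative to cell and medium controls; IC50 by four-parameter nonlinear regression.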

A short description of data set [2]: In vivo safety experiment (body weight, tolerance). The following applies: for Mortality of mice / Body weight of mouse: 75 mg/kg/day oral QD; for Mortality of mice: 7 consecutive days, 5 mice.
Protocol: The safety evaluation of the drug was carried out in BALB/c nude mice. […] They were fed in an SPF environment, and each cage was individually ventilated (5 mice per cage). All cages, bedding and water were disinfected prior to use. Mice were purchased from Viton Lever and were allowed to acclimate in the laboratory. Mice were administered orally QD.
The target of the next data set is IGF1R (Homo sapiens, UniProt P08069). In words: Kinase inhibition assay (mobility shift). Format: biochemical. A digest of the protocol:
(§2)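 Caliper mobility-shift read of substrate conversion after kinase-compound preincubation 10 min at room temperature, then ATP/substrate addition and reaction at room temperature. Ten-point 3-fold dilutions from 3,000 or 100 nM top; IC50 from variable-slope four-parameter fit of percent inhibition.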

A further data set concerns the target EGFR Δ19del/T790M/C797S (Homo sapiens, UniProt P00533, T790M/C797S, form not given). The data set is described as follows: Kinase inhibition assay (mobility shift). Format: biochemical. A digest of the protocol:
as §2

Another data set has as its target EGFR WT (Homo sapiens, UniProt P00533). In words: Kinase inhibition assay (mobility shift). The data set is classed as biochemical. The essentials:
as §2

A short description of data set [3]: In vivo efficacy data of Comparative example 1 cited from WO2019/015655A1, TGI and ED50 calculated. Particulars: nonlinear fitting of dosage vs TGI calculated from cited data, FIG. 1. The protocol:
Moreover, the data of Comparative example 1 (in the patent WO2019/015655A1) was cited in Table 4, and the TGI of each administration group was calculated. Nonlinear fitting was performed according to the administrating dosage and the tumor growth inhibition rate TGI (%) corresponding to each dosage using GraphPad Prism 8. The fitting formula is as follows and its ED50 (half effective dose) was calculated: Y=Bottom+(Top-Bottom)/(1+10^((Log ED50−X)*HillSlope)).
TGI was calculated according to the administration dosage and tumor growth volume of Comparative example 1. Nonlinear fitting was performed on the administration dosage and corresponding TGI (%). […] It can be seen that the half effective dose of compound J-022, which is 10 mg/kg/day, is equivalent to that of Comparative example 1.

A word on the IC50: it is the midpoint of a concentration-inhibition curve.

EGFR WT, sequence (P00533 25-1210): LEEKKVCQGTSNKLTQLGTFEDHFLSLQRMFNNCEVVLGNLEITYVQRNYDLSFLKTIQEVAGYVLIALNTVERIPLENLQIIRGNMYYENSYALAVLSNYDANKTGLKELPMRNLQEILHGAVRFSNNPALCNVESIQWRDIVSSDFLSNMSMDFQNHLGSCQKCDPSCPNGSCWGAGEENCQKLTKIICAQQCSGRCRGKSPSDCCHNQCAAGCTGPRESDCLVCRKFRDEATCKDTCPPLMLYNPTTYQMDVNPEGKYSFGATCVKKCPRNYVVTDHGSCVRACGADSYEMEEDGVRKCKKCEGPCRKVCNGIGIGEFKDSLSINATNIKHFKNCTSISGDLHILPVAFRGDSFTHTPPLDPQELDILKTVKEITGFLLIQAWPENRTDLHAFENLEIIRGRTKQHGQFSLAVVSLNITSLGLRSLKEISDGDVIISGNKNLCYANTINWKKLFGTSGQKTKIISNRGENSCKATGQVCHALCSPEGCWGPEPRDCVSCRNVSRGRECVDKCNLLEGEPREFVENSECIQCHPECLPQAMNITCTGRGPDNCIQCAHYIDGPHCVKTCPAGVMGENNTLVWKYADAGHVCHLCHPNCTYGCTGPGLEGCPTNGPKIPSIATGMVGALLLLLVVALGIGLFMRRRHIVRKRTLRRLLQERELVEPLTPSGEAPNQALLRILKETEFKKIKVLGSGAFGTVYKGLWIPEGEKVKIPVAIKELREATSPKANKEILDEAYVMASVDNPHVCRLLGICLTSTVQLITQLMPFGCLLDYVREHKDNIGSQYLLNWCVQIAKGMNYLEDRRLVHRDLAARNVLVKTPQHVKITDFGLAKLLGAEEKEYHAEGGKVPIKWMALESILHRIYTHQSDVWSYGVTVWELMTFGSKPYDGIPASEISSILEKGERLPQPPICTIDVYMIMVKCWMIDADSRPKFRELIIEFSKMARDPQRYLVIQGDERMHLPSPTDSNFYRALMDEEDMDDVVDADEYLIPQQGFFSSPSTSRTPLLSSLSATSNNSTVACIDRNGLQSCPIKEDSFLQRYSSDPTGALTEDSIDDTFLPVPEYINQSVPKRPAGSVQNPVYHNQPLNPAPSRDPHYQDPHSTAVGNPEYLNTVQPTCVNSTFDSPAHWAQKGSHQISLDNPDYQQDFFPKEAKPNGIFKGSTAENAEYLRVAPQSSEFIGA
Ba/F3-Δ19del/T790M/C797S, sequence (P00533 with tags, fused parts or gaps DEL746-750/T790M/C797S, form open): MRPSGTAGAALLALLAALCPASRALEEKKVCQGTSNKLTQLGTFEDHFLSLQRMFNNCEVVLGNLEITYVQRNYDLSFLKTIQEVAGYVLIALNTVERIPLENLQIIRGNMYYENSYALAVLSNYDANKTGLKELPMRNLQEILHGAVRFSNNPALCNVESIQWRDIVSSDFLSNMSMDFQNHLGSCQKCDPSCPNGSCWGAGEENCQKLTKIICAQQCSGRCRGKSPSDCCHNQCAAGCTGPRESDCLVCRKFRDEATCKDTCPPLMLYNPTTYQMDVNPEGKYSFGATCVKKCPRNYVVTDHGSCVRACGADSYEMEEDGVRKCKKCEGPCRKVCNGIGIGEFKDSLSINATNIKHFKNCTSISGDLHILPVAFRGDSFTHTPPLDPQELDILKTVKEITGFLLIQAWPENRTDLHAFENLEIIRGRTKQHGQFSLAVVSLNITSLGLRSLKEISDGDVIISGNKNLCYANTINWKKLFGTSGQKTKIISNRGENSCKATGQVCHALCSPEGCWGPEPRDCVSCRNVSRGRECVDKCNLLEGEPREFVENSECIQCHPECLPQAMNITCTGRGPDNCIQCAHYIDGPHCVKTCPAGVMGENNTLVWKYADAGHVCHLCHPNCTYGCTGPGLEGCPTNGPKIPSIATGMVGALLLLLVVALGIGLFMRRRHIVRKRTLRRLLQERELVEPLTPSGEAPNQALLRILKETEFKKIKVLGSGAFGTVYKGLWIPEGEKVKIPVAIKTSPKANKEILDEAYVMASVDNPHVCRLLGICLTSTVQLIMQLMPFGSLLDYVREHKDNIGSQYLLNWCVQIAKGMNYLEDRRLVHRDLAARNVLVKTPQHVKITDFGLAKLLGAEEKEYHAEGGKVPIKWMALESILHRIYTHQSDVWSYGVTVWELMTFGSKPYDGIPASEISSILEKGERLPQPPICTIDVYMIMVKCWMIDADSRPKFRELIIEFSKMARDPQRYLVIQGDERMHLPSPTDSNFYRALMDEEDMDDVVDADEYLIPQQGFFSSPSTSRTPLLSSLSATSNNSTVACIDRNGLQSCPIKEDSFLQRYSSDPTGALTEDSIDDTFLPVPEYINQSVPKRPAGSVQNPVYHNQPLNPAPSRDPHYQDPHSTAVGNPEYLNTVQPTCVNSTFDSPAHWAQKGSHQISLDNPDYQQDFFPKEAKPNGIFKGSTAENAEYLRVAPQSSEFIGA
EGFR Δ19del/T790M/C797S, sequence (P00533 with tags, fused parts or gaps DEL746-750/T790M/C797S, form open): as above
IGF1R, sequence (P08069 31-1367, species assumed): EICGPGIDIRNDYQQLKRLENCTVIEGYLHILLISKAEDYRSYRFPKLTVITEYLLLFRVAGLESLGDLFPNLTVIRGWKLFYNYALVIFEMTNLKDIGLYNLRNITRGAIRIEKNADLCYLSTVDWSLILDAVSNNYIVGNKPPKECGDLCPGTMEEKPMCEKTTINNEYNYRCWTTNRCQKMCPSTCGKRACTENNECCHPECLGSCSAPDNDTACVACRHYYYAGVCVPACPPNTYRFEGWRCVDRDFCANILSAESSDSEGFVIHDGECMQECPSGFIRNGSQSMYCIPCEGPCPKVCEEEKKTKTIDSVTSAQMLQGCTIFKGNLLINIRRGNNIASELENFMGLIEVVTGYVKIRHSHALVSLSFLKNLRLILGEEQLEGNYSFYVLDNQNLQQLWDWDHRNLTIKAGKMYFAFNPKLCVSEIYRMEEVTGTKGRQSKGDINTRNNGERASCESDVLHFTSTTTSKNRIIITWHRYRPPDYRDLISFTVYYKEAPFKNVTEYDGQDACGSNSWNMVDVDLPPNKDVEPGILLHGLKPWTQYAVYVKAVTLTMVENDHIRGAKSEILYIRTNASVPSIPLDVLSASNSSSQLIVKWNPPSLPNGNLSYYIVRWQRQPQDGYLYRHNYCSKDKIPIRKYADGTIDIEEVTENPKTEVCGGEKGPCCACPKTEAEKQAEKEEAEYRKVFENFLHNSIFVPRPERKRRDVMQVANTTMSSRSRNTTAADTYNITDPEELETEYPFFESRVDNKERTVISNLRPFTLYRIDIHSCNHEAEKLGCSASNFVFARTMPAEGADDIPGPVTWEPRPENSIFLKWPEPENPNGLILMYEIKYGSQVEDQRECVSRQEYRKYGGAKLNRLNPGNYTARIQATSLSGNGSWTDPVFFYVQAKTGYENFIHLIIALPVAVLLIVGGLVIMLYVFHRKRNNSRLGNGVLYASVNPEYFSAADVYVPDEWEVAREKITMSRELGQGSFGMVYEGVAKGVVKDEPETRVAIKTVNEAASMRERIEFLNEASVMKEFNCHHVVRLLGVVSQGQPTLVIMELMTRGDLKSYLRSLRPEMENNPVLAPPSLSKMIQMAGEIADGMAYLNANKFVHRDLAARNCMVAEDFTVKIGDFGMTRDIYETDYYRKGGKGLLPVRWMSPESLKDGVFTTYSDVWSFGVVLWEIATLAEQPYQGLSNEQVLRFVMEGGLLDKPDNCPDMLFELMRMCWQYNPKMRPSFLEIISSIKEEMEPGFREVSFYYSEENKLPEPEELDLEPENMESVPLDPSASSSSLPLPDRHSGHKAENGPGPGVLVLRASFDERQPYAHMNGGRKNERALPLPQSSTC

On to `CCc1cc(Nc2ncc(Br)c(Nc3ccc4nccnc4c3P(C)(C)=O)n2)c(OC)cc1N1CCC(N2CCN(C)CC2)CC1` [Comparable example 1, reference compound], for which, at Ba/F3 EGFR WT, the “BaF3 EGFR WT IC50” value is listed as “strong inhibitory effect” and the GI50 is 0.0399 µM. Further, on Ba/F3-Δ19del/T790M/C797S, the “Ba/F3/EGFR Δ19del/T790M/C797S IC50” value was “strong inhibitory effect” and the GI50 was 0.009 µM. In addition, the “A431 IC50” value in data set [1] was “certain inhibitory effect”. The Mortality of mice result in data set [2] is recorded as “all the 5 mice died on the 6th day”. Also, the Mortality of mice entry in data set [2] (listed as Comparative example 1) was “all mice died of intolerance”. The “Body weight of mouse” value in data set [2] (2 days) is on record as “began to decrease”. The “Body weight of mouse” value in data set [2] (4 days) was “decreased significantly”. Also, the “window from the effective dose to the intolerance dose” value in data set [2] (effective dose = dose corresponding to 50% TGI) is reported as “less than 8.6 times”. On IGF1R, the IC50 worked out at 0.0095 µM and the “IGF1R IC50” value is reported as “strong inhibitory activity”. At EGFR Δ19del/T790M/C797S, the “EGFR Δ19del/T790M/C797S IC50” value was “strong inhibitory effect”. At EGFR WT, the “EGFR WT IC50” value is “strong inhibitory activity” and the IC50 stood at 0.0051 µM. For the same compound, in data set [3], the “half effective dose ED50 (dosage at TGI 50%)” value was 8.7 mg/kg/day.
For the compound `COc1cc(Nc2ncc(Br)c(Nc3ccc4nc(C5CC5)ccc4c3P(C)(C)=O)n2)c(C2CC2)cc1N1CCC(N2CCN(C)CC2)CC1` [Compound J-024, (6-((5-Bromo-2-((2-cyclopropyl-5-methoxy-4-(4-(4-methylpiperazin-1-yl)piperidin-1-yl)phenyl)amino)pyrimidin-4-yl)amino)-2-cyclopropylquinolin-5-yl)dimethylphosphine oxide], the values for the GI50 on Ba/F3 EGFR WT and on Ba/F3-Δ19del/T790M/C797S were 0.373 µM and 0.0267 µM, respectively. The half-inhibitory concentration (IC50) in data set [1] turned out to be 1.38 µM; on IGF1R it was 0.14 µM; on EGFR Δ19del/T790M/C797S, 0.0005 µM; at EGFR WT, 0.114 µM.
Regarding `COc1cc(N2CCC(N3CCN(C)CC3)CC2)c(C)cc1Nc1ncc(Br)c(Nc2ccc3nc(C(C)C)ccc3c2P(C)(C)=O)n1` [Compound J-034, (6-((5-Bromo-2-((2-methoxy-5-methyl-4-(4-(4-methylpiperazin-1-yl)piperidin-1-yl)phenyl)amino)pyrimidin-4-yl)amino)-2-isopropylquinolin-5-yl)dimethylphosphine oxide], the GI50 amounted to 0.189 µM at Ba/F3 EGFR WT and 0.0058 µM at Ba/F3-Δ19del/T790M/C797S. For the same compound, the concentration for half-maximal inhibition (IC50) in data set [1] worked out at 0.441 µM; at IGF1R, 0.298 µM; on EGFR Δ19del/T790M/C797S, 0.00012 µM; at EGFR WT, 0.023 µM.
Take `C#Cc1ccc2c(P(C)(C)=O)c(Nc3nc(Nc4cc(CC)c(N5CCC(N6CCN(C)CC6)CC5)cc4OC)ncc3Br)ccc2n1` [Compound J-014, (6-((5-Bromo-2-((5-ethyl-2-methoxy-4-(4-(4-methylpiperazin-1-yl)piperidin-1-yl)phenyl)amino)pyrimidin-4-yl)amino)-2-ethynylquinolin-5-yl)dimethylphosphine oxide]: the GI50 is 0.108 µM at Ba/F3 EGFR WT and 0.006 µM on Ba/F3-Δ19del/T790M/C797S. Also, the 50% inhibitory concentration (IC50) in data set [1] came to 0.514 µM; at IGF1R, 0.058 µM; on EGFR Δ19del/T790M/C797S, 0.00019 µM; at EGFR WT, 0.0047 µM.
Take `COc1cc(N2CCN(C)CC2)c(C#N)cc1Nc1ncc(Br)c(Nc2ccc3nc(C4CC4)ccc3c2P(C)(C)=O)n1` [Compound J-012, 5-((5-Bromo-4-((2-cyclopropyl-5-(dimethylphosphineoxide)quinolin-6-yl)amino)pyrimidin-2-yl)amino)-4-methoxy-2-(4-methylpiperazin-1-yl)benzonitrile]: the GI50 is 0.13 µM at Ba/F3 EGFR WT and 0.0034 µM on Ba/F3-Δ19del/T790M/C797S. Besides, the IC50 in data set [1] was 0.83 µM; at IGF1R, 0.279 µM; on EGFR Δ19del/T790M/C797S, 0.0002 µM; on EGFR WT, 0.0439 µM.
As to `CCCc1ccc2c(P(C)(C)=O)c(Nc3nc(Nc4cc(C)c(N5CCC(N6CCN(C)CC6)CC5)cc4OC)ncc3Br)ccc2n1` [Compound J-042, (6-((5-Bromo-2-((2-methoxy-5-methyl-4-(4-(4-methylpiperazin-1-yl)piperidin-1-yl)phenyl)amino)pyrimidin-4-yl)amino)-2-propylquinolin-5-yl)dimethylphosphine oxide], the GI50 came out at 0.296 µM on Ba/F3 EGFR WT and 0.00818 µM at Ba/F3-Δ19del/T790M/C797S. Also, the half-maximal inhibitory concentration (IC50) in data set [1] was 0.373 µM; on IGF1R it was 0.107 µM; on EGFR Δ19del/T790M/C797S, 0.0003 µM; on EGFR WT, 0.0211 µM.
As for `COc1cc(N2CCN(C)CC2)c(C)cc1Nc1ncc(Br)c(Nc2ccc3nc(C4CC4)ccc3c2P(C)(C)=O)n1` [Compound J-010, (6-((5-Bromo-2-((2-methoxy-5-methyl-4-(4-methylpiperazin-1-yl)phenyl)amino)pyrimidin-4-yl)amino)-2-cyclopropylquinolin-5-yl)dimethylphosphine oxide], the values for the GI50 on Ba/F3 EGFR WT and at Ba/F3-Δ19del/T790M/C797S were 0.187 µM and 0.0115 µM, respectively. The IC50 was determined as 0.969 µM in data set [1], 0.142 µM on IGF1R, 0.0002 µM at EGFR Δ19del/T790M/C797S and 0.079 µM on EGFR WT.
Regarding `COc1cc(Nc2ncc(Br)c(Nc3ccc4nc(C5CC5)ccc4c3P(C)(C)=O)n2)c(C)cc1N1CCC(N2CCN(C)CC2)CC1` [Compound J-023, (6-((5-Bromo-2-((5-methoxy-2-methyl-4-(4-(4-methylpiperazin-1-yl)piperidin-J-yl)phenyl)amino)pyrimidin-4-yl)amino)-2-cyclopropylquinolin-5-yl)dimethylphosphine oxide], the GI50 on Ba/F3 EGFR WT turned out to be 0.117 µM; on Ba/F3-Δ19del/T790M/C797S it was 0.0064 µM. For the same compound, the IC50 in data set [1] came to 0.877 µM; on IGF1R it was 0.027 µM; at EGFR Δ19del/T790M/C797S, 0.00028 µM; on EGFR WT, 0.017 µM.
`CCc1cc(Nc2ncc(Br)c(Nc3ccc4nc(C5CC5)ccc4c3P(C)(C)=O)n2)c(C)cc1N1CCC(N2CCN(C)CC2)CC1` [Compound J-027, (6-((5-Bromo-2-((5-ethyl-2-methyl-4-(4-(4-methylpiperazin-1-yl)piperidin-1-yl)phenyl)amino)pyrimidin-4-yl)amino)-2-cyclopropylquinolin-5-yl)dimethylphosphine oxide]: the GI50 on Ba/F3 EGFR WT is 0.052 µM; at Ba/F3-Δ19del/T790M/C797S it was 0.0014 µM. Besides, the IC50 in data set [1] was found to be 9.01 µM; at IGF1R it was 0.0616 µM; on EGFR Δ19del/T790M/C797S it was 0.0003 µM; on EGFR WT, 0.0111 µM.
On to `C#Cc1ccc2c(P(C)(C)=O)c(Nc3nc(Nc4cc(OC)c(N5CCC(N6CCN(C)CC6)CC5)cc4C)ncc3Br)ccc2n1` [Compound J-015, (6-((5-Bromo-2-((5-methoxy-2-methyl-4-(4-(4-methylpiperazin-1-yl)piperidin-1-yl)phenyl)amino)pyrimidin-4-yl)amino)-2-ethynylquinolin-5-yl)dimethylphosphine oxide], for which the GI50 stood at 0.388 µM on Ba/F3 EGFR WT and 0.0158 µM on Ba/F3-Δ19del/T790M/C797S. Besides, the IC50 in data set [1] was 0.678 µM; at IGF1R, 0.0121 µM; at EGFR Δ19del/T790M/C797S it was 0.00029 µM; at EGFR WT, 0.0121 µM.

The values are drawn from US20230131025A1, “QUINOLYL PHOSPHINE OXIDE COMPOUND, AND COMPOSITION AND APPLICATION THEREOF” (Betta Pharmaceuticals Co., Ltd., priority 2020, published 2023).
